Assays:
3T3-L1 adipocytes [1] = assay: Intracellular triacylglycerol in 3T3-L1 adipocytes; format: cell-based; details: for decrease of intracellular triacylglycerol accumulation: 3T3-L1 cells
Method: (§1) First, 3T3-L1 cells were cultured in Dulbecco’s modified Eagle’s medium (DMEM) medium containing 10% (v/v) fatal bovine serum (FBS) and 1% antibiotics in a humidified atmosphere of 5% CO2 at 37 °C. For cell toxicity assessment, 3T3-L1 cells (1 × 10^5) were seeded in a 96-well plate for 24 h. After that, the cells were incubated for 6 days in DMEM containing various concentrations (0–1.0 mg/mL) of the synthetic PP1. Cell toxicity was measured by MTT according to the instructions indicated by the manufacturer. For cell differentiation, 3T3-L1 cells were seeded in 6-well plates at a density of 2 × 10^5 cells/well. Then, the medium was changed by DMEM with insulin (5 μg/mL; Sigma), 1 μM of dexamethasone (Sigma), and 0.5 mM of 3-isobutyl-1-methylxanthine. On day 3, the medium was replaced with DMEM containing insulin (5 μg/mL; Sigma) and 10% (v/v) FBS every 3 days. Various concentrations of the synthetic PP1 were attendant during the whole process of differentiation induction. Oil Red O staining of the intracellular lipids was carried out, as described previously. Moreover, intracellular triacylglycerol levels were measured by using an Assay Triglyceride Kit. Protein concentrations were determined with BCA Protein Assay.

[2] = biological target: T1, porcine pancreatic lipase (PL) (Sus scrofa, UniProt P00591); assay: Pancreatic lipase inhibition, Copper soap method; format: biochemical; details: olive oil substrate, PBS pH 7.38, triplicate
T1 construct: purchased Sigma
T1 sequence (P00591 1-450): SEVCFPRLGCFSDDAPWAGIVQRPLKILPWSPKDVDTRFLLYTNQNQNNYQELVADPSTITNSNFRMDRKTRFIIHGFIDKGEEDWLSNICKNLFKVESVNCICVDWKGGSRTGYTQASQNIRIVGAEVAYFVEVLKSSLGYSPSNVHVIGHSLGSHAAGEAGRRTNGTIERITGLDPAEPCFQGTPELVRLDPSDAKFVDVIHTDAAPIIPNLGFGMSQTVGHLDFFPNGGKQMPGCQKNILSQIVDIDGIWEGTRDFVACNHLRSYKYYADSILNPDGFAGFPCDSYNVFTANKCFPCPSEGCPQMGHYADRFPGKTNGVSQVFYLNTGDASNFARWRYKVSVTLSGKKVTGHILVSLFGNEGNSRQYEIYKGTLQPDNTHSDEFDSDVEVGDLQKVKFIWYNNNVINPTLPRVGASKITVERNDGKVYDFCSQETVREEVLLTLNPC
Method: Copper soap method: The lipase activity assay involved a reaction medium (10 mL) containing 1 mg of olive oil, 3 mL 0.0667 mol/L, pH = 7.38 phosphate buffer saline (PBS), and 0.1 mL (C = 1 mg/mL) of lipase in the presence of 1 mL peptides with different concentrations. The peptides solution was prepared by dissolving in the working solution and was then added to reaction mixtures just before the reaction. Control lipase activity was determined without peptides. All samples were analyzed in triplicate. (1) Inhibition%=1−(Aa−A0)−(Ab−A0)/(Aa−A0)×100% where Ab refers to the absorbance value of the normal group; A0 is referred to the absorbance value of blank; and Aa is the absorbance values of the control group.

C/EBPα = assay: Western blot, C/EBPα expression; format: cell-based; details: PP1 600 μg/mL, 3T3-L1 adipocytes
Method: (§2) Cells were lysed in Radio Immunoprecipitation Assay (RIPA) buffer for 1 h and then centrifuged at 12,000 rpm for 25 min at 4 °C. The protein concentrations were determined by using a BCA protein assay kit. The supernatants were mixed with 4 × Sodium dodecyl sulfate (SDS) sample buffer and boiled for 10 min. The samples were run on a 4–15% SDS polyacrylamide gel and then transferred to a polyvinylidene difluoride membrane. The membrane was blocked with 5% (w/v) bovine serum albumin (BSA) for 30 min and then incubated with primary antibodies at 4 °C overnight. After washing with Tris-Buffered Saline and Tween 20 (TBST) 3 times, the membranes were washed with TBST and incubated with the secondary antibodies. Signals were detected with a scanner (Thermo Fisher Scientific, Inc.), and the fluorescence intensity was measured using Image software.

SREBP-1c = assay: Western blot, SREBP-1c expression; format: cell-based; details: PP1 600 μg/mL, 3T3-L1 adipocytes
Method: as §2

3T3-L1 adipocytes [3] = assay: Lipid accumulation / differentiation in 3T3-L1 cells (Oil Red O); format: cell-based
Method: as §1

AMPKα = assay: Western blot, AMPKα expression; format: cell-based; details: PP1 600 μg/mL, 3T3-L1 adipocytes
Method: as §2

PPARγ = assay: Western blot, PPARγ expression; format: cell-based; details: PP1 600 μg/mL, 3T3-L1 adipocytes
Method: as §2

[4] = Table 2, Alcalase hydrolysate fractions and positive drugs, mean ± SD, test concentration not given

Row | Molecule | decrease of intracellular triacylglycerol accumulation (3T3-L1 adipocytes [1]; simvastatin 10 μM, positive drug) | Inhibition of Pancreatic Lipase [2, 4] | C/EBPα protein level (C/EBPα) | decrease of intracellular triacylglycerol accumulation (3T3-L1 adipocytes [1]; PP1 600 μg/mL) | intracellular triacylglycerol level (3T3-L1 adipocytes [1]; PP1 600 μg/mL during differentiation, p < 0.05, mature adipocyte (model) 82.98 ± 11.2, pre-adipocytes 25.98 ± 1.6) | SREBP-1c protein level (SREBP-1c) | differentiation inhibition (3T3-L1 adipocytes [3]; 3T3-L1 pre-adipocytes) | number of intracellular lipid droplets (3T3-L1 adipocytes [3]; Oil Red O, PP1 present during differentiation, compared with model group) | AMPKα protein expression (AMPKα) | PPARγ protein level (PPARγ) | Inhibition of Pancreatic Lipase ([2]; synthetic peptide at 200 μg/mL)
1 | CCC(C)(C)C(=O)O[C@H]1C[C@@H](C)C=C2C=C[C@H](C)[C@H](CC[C@@H]3C[C@@H](O)CC(=O)O3)[C@H]21 [simvastatin, reference compound] | 24.1% | 35.2 ± 1.9% | – | – | – | – | – | – | – | – | –
2 | CCCCCCCCCCC[C@@H](C[C@@H]1OC(=O)[C@H]1CCCCCC)OC(=O)[C@H](CC(C)C)NC=O [Orlistat] | – | 88.85 ± 2.42% | – | – | – | – | – | – | – | – | –
3 | Leu-Leu-Val-Val-Try-Pro-Trp-Thr-Gln-Arg (LLVVYPWTQR) [PP1, synthetic decapeptide identified from A2 fraction of Alcalase hydrolysate] | – | – | decreased the levels of C/EBPα | 27.9% | 59.82 ± 6.78 nmol/mg protein | decreased the levels of C/EBPα, SREBP-1c | good differentiation inhibition activity | clearly decreased compared with that in the model group | significantly increased the expression of AMPKα | decreased the levels of C/EBPα, SREBP-1c, and PPARγ | 47.95%

— publication PMC6804107, “Separation and Lipid Inhibition Effects of a Novel Decapeptide from Chlorella pyenoidose” (Molecules, 2019)
